The target in experiment [1] is human RORγt ligand binding domain (RORγt LBD) (Homo sapiens (Human), UniProt P51449). Description: RORγt ThermoFluor assay. For orientation: In DSF a fluorescence change marks the thermal transition of the protein.
The target of experiment [2] is full-length human RORγt (GAL4-DBD-RORγt fusion) in HEK293T cells (Homo sapiens (Human), UniProt P51449). Description: RORγt (full-length human) reporter assay, conditions A or B. The experiment is classed as cell-based. The conditions noted are these: for IC50: HEK293T cells, read-out: RORγt (FL) Reporter Assay A or B, IC50; for inhibition at 3 µM / inhibition at 1 µM: HEK-293T, read-out: RORγt (FL) Reporter Assay A or B, % inhibition; for inhibition at 3 µM: 3 μM compound concentration (footnote *); for inhibition at 1 µM: 1 μM compound concentration (footnote ***). The method, boiled down:
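HEK293T cells expressing GAL4-DBD-RORγt fusion (96- or 384-well formats, DMEM/10% FBS) exposed to compound overnight (16–20 h). Firefly luciferase normalized to DMSO and saturating reference compound, then to Renilla; IC50 from dose curve, % inhibition versus DMSO.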
A general note: Reporter assays use an easily measured gene product as a stand-in for the process of interest.

Sequence of human RORγt ligand binding domain (RORγt LBD) (P51449 other isoform, or with tags, fused parts or gaps): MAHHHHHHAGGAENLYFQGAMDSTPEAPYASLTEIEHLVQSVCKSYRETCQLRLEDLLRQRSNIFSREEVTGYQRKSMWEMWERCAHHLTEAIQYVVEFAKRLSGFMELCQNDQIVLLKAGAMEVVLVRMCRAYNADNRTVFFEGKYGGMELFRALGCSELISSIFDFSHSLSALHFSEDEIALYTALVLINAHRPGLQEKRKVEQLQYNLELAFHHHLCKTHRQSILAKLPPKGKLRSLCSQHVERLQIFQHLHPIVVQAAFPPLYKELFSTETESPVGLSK
Sequence of full-length human RORγt (GAL4-DBD-RORγt fusion) in HEK293T cells (P51449 other isoform, or with tags, fused parts or gaps): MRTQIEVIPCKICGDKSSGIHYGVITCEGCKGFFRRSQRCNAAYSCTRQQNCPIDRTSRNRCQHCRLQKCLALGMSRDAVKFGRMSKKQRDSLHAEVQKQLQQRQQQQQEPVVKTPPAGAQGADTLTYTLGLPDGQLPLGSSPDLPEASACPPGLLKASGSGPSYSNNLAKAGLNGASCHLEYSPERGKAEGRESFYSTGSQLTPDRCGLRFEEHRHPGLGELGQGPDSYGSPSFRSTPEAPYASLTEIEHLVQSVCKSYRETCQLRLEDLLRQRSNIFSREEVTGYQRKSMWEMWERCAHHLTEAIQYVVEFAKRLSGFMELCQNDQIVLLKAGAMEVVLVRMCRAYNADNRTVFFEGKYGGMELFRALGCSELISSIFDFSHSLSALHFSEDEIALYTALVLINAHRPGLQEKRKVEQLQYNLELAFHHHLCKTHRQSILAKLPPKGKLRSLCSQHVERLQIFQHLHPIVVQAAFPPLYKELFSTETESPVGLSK

The Kd is the constant that tells how readily two partners part at equilibrium. As a reminder, the IC50 is the concentration that gives 50% inhibition. As usually defined, the inhibition is the drop in the measured response relative to a control, in per cent. Regarding `CCn1nc(C(=O)NC[C@]2(O)CC[C@@H](S(C)(=O)=O)CC2)c(C)c1-c1cnc(CC(C)(C)C(F)(F)F)cc1C(F)F` [Example 28, 5-(4-(Difluoromethyl)-6-(3,3,3-trifluoro-2,2-dimethylpropyl)pyridin-3-yl)-1-ethyl-N-(((1s,4s)-1-hydroxy-4-(methylsulfonyl)cyclohexyl)methyl)-4-methyl-1H-pyrazole-3-carboxamide], the dissociation constant Kd in experiment [1] worked out at 97 nM. In experiment [2], the concentration for half-maximal inhibition (IC50) worked out at 2 nM and the inhibition at 3 µM was determined as 76%.

`Cn1nc(C(=O)NC[C@H]2CC[C@H](S(C)(=O)=O)CC2)c(Cl)c1-c1cnc(CC(C)(C)C(F)(F)F)cc1OC(F)F` [Example 30, 4-Chloro-5-(4-(difluoromethoxy)-6-(3,3,3-trifluoro-2,2-dimethylpropyl)pyridin-3-yl)-1-methyl-N-(((1r,4r)-4-(methylsulfonyl)cyclohexyl)methyl)-1H-pyrazole-3-carboxamide]: the dissociation constant Kd in experiment [1] worked out at 10 nM. For the same compound, in experiment [2], the IC50 was 100 nM and the inhibition at 3 µM amounted to 98%.

The compound `Cc1c(C(=O)NC[C@H]2CC[C@H](S(C)(=O)=O)CC2)nn(C)c1-c1cnc(CC(C)(C)C(F)(F)F)cc1OC(F)F` [Example 31] had a dissociation constant Kd in experiment [1] of 26 nM. In experiment [2], the half-maximal inhibitory concentration (IC50) came to 160 nM and the inhibition at 1 µM was determined as 100%.

`CCn1nc(C(=O)NC[C@H]2CC[C@H](S(C)(=O)=O)CC2)c(Cl)c1-c1cnc(CCCC(F)(F)F)cc1OC(F)F` [Example 32, 4-Chloro-5-(4-(difluoromethoxy)-6-(4,4,4-trifluorobutyl)pyridin-3-yl)-1-ethyl-N-(((1r,4r)-4-(methylsulfonyl)cyclohexyl)methyl)-1H-pyrazole-3-carboxamide] yielded a dissociation constant Kd in experiment [1] of 18 nM. Besides, in experiment [2], the concentration for half-maximal inhibition (IC50) is 54 nM and the inhibition at 3 µM came to 129%.

In turn, `CCn1nc(C(=O)NC[C@]2(O)CC[C@@H](S(C)(=O)=O)CC2)c(Cl)c1-c1cnc(CCCC(F)(F)F)cc1OC(F)F` [Example 33, 4-Chloro-5-(4-(difluoromethoxy)-6-(4,4,4-trifluorobutyl)pyridin-3-yl)-1-ethyl-N-(((1s,4s)-1-hydroxy-4-(methylsulfonyl)cyclohexyl)methyl)-1H-pyrazole-3-carboxamide] had a Kd in experiment [1] of 62 nM. In experiment [2], the IC50 was 1100 nM and the inhibition at 3 µM was determined as 66%.

For `CCn1nc(C(=O)NC[C@H]2CC[C@H](S(C)(=O)=O)CC2)c(C)c1-c1cnc(CCCC(F)(F)F)cc1OC(F)F` [Example 34, 5-(4-(Difluoromethoxy)-6-(4,4,4-trifluorobutyl)pyridin-3-yl)-1-ethyl-4-methyl-N-(((1r,4r)-4-(methylsulfonyl)cyclohexyl)methyl)-1H-pyrazole-3-carboxamide], the Kd in experiment [1] was found to be 34 nM. Moreover, in experiment [2], the 50% inhibitory concentration (IC50) was determined as 58 nM and the inhibition at 1 µM amounted to 92%.

`CCn1nc(C(=O)NC[C@]2(O)CC[C@@H](S(C)(=O)=O)CC2)c(C)c1-c1cnc(CCCC(F)(F)F)cc1OC(F)F` [Example 35, 5-(4-(Difluoromethoxy)-6-(4,4,4-trifluorobutyl)pyridin-3-yl)-1-ethyl-N-(((1s,4s)-1-hydroxy-4-(methylsulfonyl)cyclohexyl)methyl)-4-methyl-1H-pyrazole-3-carboxamide]: the equilibrium dissociation constant (Kd) in experiment [1] was 100 nM. In addition, in experiment [2], the concentration for half-maximal inhibition (IC50) was found to be 63 nM and the inhibition at 1 µM worked out at 76%.

In experiment [1], `CCn1nc(C(=O)NC[C@]2(O)CC[C@@H](S(C)(=O)=O)CC2)c(Cl)c1-c1cnc(OCC(C)(C)C(F)(F)F)cc1OC` [Example 36, 4-Chloro-1-ethyl-N-(((1s,4s)-1-hydroxy-4-(methylsulfonyl)cyclohexyl)methyl)-5-(4-methoxy-6-(3,3,3-trifluoro-2,2-dimethylpropoxy)pyridin-3-yl)-1H-pyrazole-3-carboxamide] returned a dissociation constant Kd of 20 nM. Further, in experiment [2], the IC50 was 33 nM and the inhibition at 3 µM was determined as 104%.

The values are drawn from US11034658B2, “Pyridinyl pyrazoles as modulators of RORγT” (Janssen Pharmaceutica NV, priority 2018, dated 2021).
